How the values were obtained:
[1] = tested on: pro-collagen synthesis in Hs27/HEK001 cells; assay: Pro-Collagen Synthesis In Vitro Assay (Procollagen ELISA); assay type: cell-based, human
Method: Hs27/HEK001 cells are plated at 10,000/40,000 cells per well of 96-well plate. Hs27 cells are normal human fibroblasts derived from a foreskin source. […] cells are a human epidermal cell line that originally was derived from human scalp keratinocytes. […] Hs27/HEK001 cells are allowed to attach overnight. Following overnight incubation, media is removed from the wells and replaced with 100 μl fresh media.
After overnight incubation, the test samples are added to wells in triplicate to final concentrations of 1, 10, and 100 μg/ml. The cells with test sample added are incubated overnight and supernatants are collected for analysis using a Procollagen ELISA kit from Takara Bio, Inc. (Japan). The EC50 concentration for each test sample is monitored and recorded to evaluate variability over time.
Controls for this assay include administration of 0.1, 1, and 10 μg/ml ascorbic acid and all-trans-retinoic acid to H27/HEK cells. Untreated cells also are used as a negative control. It generally is known that ascorbic acid increases pro-collagen synthesis by approximately 15-20% compared to untreated control.

[2] = tested on: glycosaminoglycan production; assay: Synthesis of glycosaminoglycans after allantoin administration; assay type: cell-based
elastin = assay: Elastin synthesis after allantoin administration; assay type: cell-based
[3] = tested on: pro-collagen synthesis in Hs27/HEK001 cells; conditions: generally known value for the control substance; cited from earlier work

Row | Compound | Pro-collagen synthesis, percent of untreated control ([1]; allantoin at 100 μg/ml, average of triplicate wells) [%] | average increase in pro-collagen synthesis ([1]; at 100 μg/ml) [%] | dose dependence of pro-collagen synthesis ([1]; final concentrations of 1, 10, and 100 μg/ml) | Glycosaminoglycan synthesis, percent of untreated control ([2]; allantoin at 100 μg/ml) [%] | average increase in glycosaminoglycan production ([2]; at 100 μg/ml) [%] | Elastin synthesis, percent of untreated control (elastin; allantoin at 100 μg/ml) [%] | average increase in elastin (elastin; at 100 μg/ml) [%] | increase in pro-collagen synthesis compared to untreated control [3]
1 | NC(=O)NC1NC(=O)NC1=O (centres unmarked) [Allantoin, 2,5-dioxy-4-imidazolidinyl urea] | 124.1 | 24.1 | dose-dependent increase in pro-collagen synthesis | 111.2 | 11.2 | 106.2 | 6.2 | –
2 | O=C1O[C@H]([C@@H](O)CO)C(O)=C1O [ascorbic acid] | – | – | – | – | – | – | – | 15-20%
